Consider 53 molecules from BindingDB's records for doi:10.7270/Q2VX0F3D (Burnham Center For Chemical Genomics, 2012).

One may read the EC50 as the concentration needed to bring the measured effect to its halfway point. The low end stands for an effect from little substance, the high end for a need for much substance.

A value given as a limit tells only on which side of the number the result lay.

In this experiment the target is T1, Corticotropin-releasing factor-binding protein (Homo sapiens, UniProt P24387).
T1 sequence (P24387 whole entry): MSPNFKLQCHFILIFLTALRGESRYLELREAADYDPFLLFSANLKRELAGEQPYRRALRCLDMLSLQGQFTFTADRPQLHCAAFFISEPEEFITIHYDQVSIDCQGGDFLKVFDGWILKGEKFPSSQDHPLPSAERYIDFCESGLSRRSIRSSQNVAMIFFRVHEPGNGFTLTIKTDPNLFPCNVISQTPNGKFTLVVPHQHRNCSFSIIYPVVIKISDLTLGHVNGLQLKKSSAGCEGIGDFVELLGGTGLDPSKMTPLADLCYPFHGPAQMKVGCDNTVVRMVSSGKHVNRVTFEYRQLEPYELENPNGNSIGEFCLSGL
The experiment in a line: activators of CRF receptor 2 with binding protein – uHTS hits, confirmation (AID 602473).
In the case of `COc1ccc(-c2ccc(C3c4c(n[nH]c4C)OC(=N)C3C#N)o2)cc1` (stereo not drawn) [6-amino-4-[5-(4-methoxyphenyl)-2-furanyl]-3-methyl-2,4-dihydropyrano[2,3-c]pyrazole-5-carbonitrile], a half-maximal effect (EC50) was put at 10.1 µM. To `COc1ccc(C2=Nc3ncnn3C(c3ccco3)C2)cc1` (stereo not drawn) [7-(2-furanyl)-5-(4-methoxyphenyl)-1,7-dihydro-[1,2,4]triazolo[1,5-a]pyrimidine] belongs 4.53 µM; to `Fc1ccc(Br)cc1C1CC(c2ccc(Br)cc2)=Nc2ncnn21` (stereo not drawn) [7-(5-bromo-2-fluorophenyl)-5-(4-bromophenyl)-1,7-dihydro-[1,2,4]triazolo[1,5-a]pyrimidine], greater than 53 µM; to `COc1ccc(C2=c3cc(F)ccc3=NC(c3ccco3)=NN2)cc1` [7-fluoranyl-2-(furan-2-yl)-5-(4-methoxyphenyl)-4H-1,3,4-benzotriazepine], greater than 53 µM. To `N#CC(C(=O)c1cccc(F)c1)c1nc2ccccc2s1` (stereo not drawn) [(2Z)-2-(3H-1,3-benzothiazol-2-ylidene)-3-(3-fluorophenyl)-3-keto-propionitrile] belongs greater than 53 µM; to `N#CC(C(=O)Cc1cccc2ccccc12)c1nc2ccccc2s1` (stereo not drawn) [(2Z)-2-(3H-1,3-benzothiazol-2-ylidene)-4-naphthalen-1-yl-3-oxobutanenitrile], 3.14 µM.

Molecule `N#CC(C1=NCCC1)c1nc2ccccc2c(=O)[nH]1` (stereo not drawn) [(2Z)-2-(4-oxo-1H-quinazolin-2-yl)-2-(2-pyrrolidinylidene)acetonitrile] yielded an EC50 greater than 53 µM. `O=NC1C(=O)N(Cc2c(Cl)cccc2Cl)c2ccccc21` (stereo not drawn) [(3Z)-1-[(2,6-dichlorophenyl)methyl]-3-hydroxyimino-2-indolone] came in with an EC50 of 4.67 µM.

The molecule `Cc1ccc2oc(=O)c(CC(=O)c3sc(C)nc3C)nc2c1` [(3Z)-3-[2-(2,4-dimethyl-1,3-thiazol-5-yl)-2-oxidanylidene-ethylidene]-6-methyl-4H-1,4-benzoxazin-2-one] registered an EC50 of 7.67 µM. To `Cc1ccc2oc(=O)c(CC(=O)c3ccco3)nc2c1` [(3Z)-3-[2-(2-furanyl)-2-oxoethylidene]-6-methyl-4H-1,4-benzoxazin-2-one] belongs 4.74 µM; to `COc1ccc(C(=O)Cc2nc3ccccc3n(-c3ccccc3)c2=O)cc1` [(3Z)-3-[2-(4-methoxyphenyl)-2-oxidanylidene-ethylidene]-1-phenyl-4H-quinoxalin-2-one], 7.85 µM. To `Cc1ccc(C(=O)Cc2nc3ccccc3oc2=O)cc1` [(3Z)-3-[2-(4-methylphenyl)-2-oxidanylidene-ethylidene]-4H-1,4-benzoxazin-2-one] belongs 11.4 µM; to `Cc1ccc2oc(=O)c(CC(=O)c3cccs3)nc2c1` [(3Z)-3-[2-keto-2-(2-thienyl)ethylidene]-6-methyl-4H-1,4-benzoxazin-2-one], 4.87 µM; to `O=C(Cc1nc2ccccc2n(-c2ccccc2)c1=O)c1ccccc1` [(3Z)-3-phenacylidene-1-phenyl-4H-quinoxalin-2-one], 11.6 µM. To `Cc1ccc2oc(=O)c(CC(=O)c3ccccc3)nc2c1` [(3Z)-6-methyl-3-(2-oxo-2-phenylethylidene)-3,4-dihydro-2H-1,4-benzoxazin-2-one] belongs 12.1 µM.

On to `CCOc1ccc(C2C(C(=O)c3ccc4c(c3)OCCO4)C(=O)C(=O)N2CCCN2CCOCC2)cc1` (stereo not drawn) [(4E)-4-[2,3-dihydro-1,4-benzodioxin-6-yl(oxidanyl)methylidene]-5-(4-ethoxyphenyl)-1-(3-morpholin-4-ylpropyl)pyrrolidine-2,3-dione], for which the EC50 was greater than 53 µM. To `CCCCN1C(=O)NC(=O)C(C(=O)C=Cc2c[nH]c3ccccc23)C1=O` (stereo not drawn) [(5Z)-1-butyl-5-[(E)-3-(1H-indol-3-yl)-1-oxidanyl-prop-2-enylidene]-1,3-diazinane-2,4,6-trione] belongs 6.02 µM; to `O=CC(C=Nc1ccccn1)c1nc2cc(Cl)ccc2o1` (stereo not drawn) [(Z)-2-(5-chloranyl-1,3-benzoxazol-2-yl)-3-(pyridin-2-ylamino)prop-2-enal], greater than 53 µM. To `N#CCSc1nnc(CNc2ccc(F)cc2)o1` [({5-[(4-fluoroanilino)methyl]-1,3,4-oxadiazol-2-yl}sulfanyl)acetonitrile] belongs greater than 53 µM; to `COc1ccc(C2=Nc3nnnn3C(c3cccc(OC)c3)C2)cc1` (stereo not drawn) [MLS000036434], greater than 53 µM.

Take `CCOC(=O)C1=C(C)N=C(SCC(=O)OC)C(C#N)C1c1ccc(C(=O)OC)cc1` (stereo not drawn) [MLS000039154]: the EC50 is greater than 53 µM. Consider `C=CCOC(=O)C1C(C)=NC2(O)c3ccccc3C(=O)C12O` (stereo not drawn) [MLS000068305], for which the EC50 is greater than 53 µM. To `Cc1c(Cl)ccc2c1NC(=O)C21NC(CCC(N)=O)c2c1c(O)n(-c1ccc(Cl)cc1)c2O` (stereo not drawn) [MLS000083515] belongs greater than 53 µM. To `CCCC(NCC(=O)O)=C1C(=O)CC(C)(C)C(C(=O)OC)C1=O` (stereo not drawn) [MLS000108316] belongs greater than 53 µM. To `CSc1nnc(C)c(CC=Nc2ccc(C)cc2)n1` [MLS000326071] belongs 14.9 µM; to `N#CC(C(=O)COC(=O)COc1cccc(Br)c1)c1nc2ccccc2[nH]1` (stereo not drawn) [MLS000391269], greater than 53 µM; to `CC(=O)C1C(=O)C(=O)N(c2nccs2)C1c1ccccc1` (stereo not drawn) [MLS000533923], greater than 53 µM.

For the molecule `COC(=O)C1=C(C)N=C(C)C(C(=O)OC)C1/C=C/c1ccccc1` (stereo not drawn) [MLS000571366], the EC50 is greater than 53 µM. To `COc1ccc(/C=N/OCC(=O)NNC2=c3cc(Br)ccc3=NC2=O)cc1` [MLS000587830] belongs greater than 53 µM. Molecule `Nc1[nH]c(=O)sc1C=C1C=CC(=O)C=C1` [MLS000697264] came in with an EC50 greater than 53 µM. `CC1(C)CC(=O)C(=CNc2ccc(C(=O)c3ccccc3)cc2NC=C2C(=O)CC(C)(C)CC2=O)C(=O)C1` [MLS000724193] came in with an EC50 greater than 53 µM.

In turn, `Cn1c(SCC(=O)N/N=C/C2C=C([N+](=O)[O-])C=CC2=O)nnc1-c1ccccc1` (stereo not drawn) [MLS000777077] came in with an EC50 greater than 53 µM. Consider `Cc1cc(C)n(CCC(=O)NNC2=c3cc(Br)ccc3=NC2=O)n1` [MLS000777238], for which the EC50 was greater than 53 µM. `CC(=O)C1C(C)=NC(=S)NC1c1cc([N+](=O)[O-])ccc1O` (stereo not drawn) [MLS000777581] displayed an EC50 greater than 53 µM. To `O=C(Nn1c(O)csc1=S)c1cccnc1` [MLS000780148] belongs greater than 53 µM.

Regarding `COc1ccc(C(C)N=Nc2ccc([N+](=O)[O-])cc2S(=O)(=O)Nc2ccccc2C(=O)O)c(OC)c1` (stereo not drawn) [MLS002249507], the EC50 was determined as 38.6 µM. To `Cn1c(O)c(N=Nc2ccc([N+](=O)[O-])cc2)sc1=S` [MLS002608645] belongs 1.69 µM; to `CN(C)c1ccc(C=Nn2c(O)csc2=S)c(Cl)c1` [MLS002919800], greater than 53 µM; to `Oc1csc(=S)n1N=Cc1c(F)cccc1Cl` [MLS002919802], greater than 53 µM. The molecule `Cc1cc2c(cc1Br)=NC(=O)C=2NNC(=O)C1CC1c1ccccc1` (stereo not drawn) [N'-(6-bromo-5-methyl-2-oxo-3-indolyl)-2-phenyl-1-cyclopropanecarbohydrazide] registered an EC50 greater than 53 µM. To `COc1ccccc1NS(=O)(=O)c1ccc(N=NCc2c(C)nn(-c3ccccc3)c2N2CCCC2)c([N+](=O)[O-])c1` [N-(2-methoxyphenyl)-4-[(2E)-2-[(3-methyl-1-phenyl-5-pyrrolidin-1-yl-pyrazol-4-yl)methylidene]hydrazinyl]-3-nitro-benzenesulfonamide] belongs greater than 53 µM. Take `Cc1noc(NS(=O)(=O)c2ccc(N=CCC(=O)c3cccc4ccccc34)cc2)c1C` [N-(3,4-dimethyl-1,2-oxazol-5-yl)-4-[[(Z)-3-naphthalen-1-yl-3-oxidanylidene-prop-1-enyl]amino]benzenesulfonamide]: the EC50 is greater than 53 µM. Molecule `Cc1ccc(C)c2sc(NC(=O)c3ccc(-n4c(O)ccc4O)cc3)nc12` [N-(4,7-dimethyl-1,3-benzothiazol-2-yl)-4-(2,5-dioxopyrrolidin-1-yl)benzamide] came in with an EC50 greater than 53 µM. `CN1c2ccccc2C(=O)C(C(=S)Nc2ccc(Cl)cc2)S1(=O)=O` (stereo not drawn) [N-(4-chlorophenyl)-4-hydroxy-1-methyl-2,2-dioxo-1,2-dihydro-2lambda~6~,1-benzothiazine-3-carbothioamide] yielded an EC50 greater than 53 µM. With `CCCCN(C(=O)c1ccc2c(c1)S(=O)(=O)NC1=CCCCCN12)c1c(N)n(CCCC)c(=O)[nH]c1=O` [N-(6-amino-1-butyl-2,4-dioxo-5-pyrimidinyl)-N-butyl-5,5-dioxo-8,9,10,11-tetrahydro-7H-azepino[2,1-c][1,2,4]benzothiadiazine-3-carboxamide], the EC50 was greater than 53 µM. `CCC(C)(C)NC(=O)C(c1ccccc1F)N(Cc1ccco1)C(=O)c1csnn1` (stereo not drawn) [N-[1-(2-fluorophenyl)-2-(2-methylbutan-2-ylamino)-2-oxoethyl]-N-(2-furanylmethyl)-4-thiadiazolecarboxamide] returned an EC50 of 15.6 µM.

`O=NCc1ccc(Oc2ccc(F)cc2)c([N+](=O)[O-])c1` [N-[[4-(4-fluorophenoxy)-3-nitrophenyl]methylidene]hydroxylamine] registered an EC50 greater than 53 µM. To `COC(=O)C1=Nc2nnnn2C(c2ccc(O)c(OC)c2)C1C(=O)c1ccccc1` (stereo not drawn) [SMR000020111] belongs greater than 53 µM; to `COc1ccc(C2=Nc3nnnn3C(c3ccc(C)cc3)C2)cc1` (stereo not drawn) [SMR000035317], greater than 53 µM.

`CCc1ccccc1-n1c(O)c2c(c1O)CC(C)=C(C)C2` [SMR000104383] registered an EC50 greater than 53 µM.

For the molecule `CC(=CN=Nc1nc(C)cc(C)n1)Cc1ccc(C(C)C)cc1` [SMR000146220], the EC50 was greater than 53 µM. To `Cc1[nH]c2ccccc2c1/C=C1\N=C(c2ccc(C(F)(F)F)cc2)OC1=O` [SMR000152363] belongs 10.2 µM; to `Cc1ccc(-n2[nH]c(C)c(CN=Nc3ccc([N+](=O)[O-])cc3[N+](=O)[O-])c2=O)cc1` [SMR000171521], greater than 53 µM.
